# Test results taken from PubChem BioAssay AID330 (DTP/NCI, 2004).
# Where “and” joins values, the source holds several entries; their conditions need not be identical. Equal entries are not always repeated. Toxic doses and inconclusive results are not listed.
# Tested on: P388 leukemia ip, CD2F1 mice, survival T/C
# Assay: NCI In Vivo Anticancer Drug Screen. Data for tumor model P388 Leukemia (intraperitoneal) in CD2F1 (CDF1) mice
# Conditions: endpoint: median survival time, higher = longer survival
# Summary of the method: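 Mice carrying the transplanted tumor received test compound or vehicle. Survival was recorded in each group, and the value is the treated-group measurement divided by that of the vehicle-treated control group.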
smiles,measurement,setting,value
CO[C@H]1C[C@](C)(O)Cc2cc3c(c(O)c21)C(=O)c1c(O)cc2c(c1C3=O)O[C@@H]1O[C@@]2(C)[C@H](O)[C@@H](N(C)C)[C@@H]1O,T/C,"dose: 1.5 mg/kg/injection, schedule: Q01DX005 (iv), vehicle: clinical formulation",115 % of control
same,T/C,"dose: 1.56 mg/kg/injection, schedule: Q01DX009 (ip), vehicle: other",156 % of control and 166 % of control
same,T/C,"dose: 1.6 mg/kg/injection, schedule: Q01DX009 (oral), vehicle: other",95 % of control
same,T/C,"dose: 2.5 mg/kg/injection, schedule: Q01DX005 (ip), vehicle: clinical formulation",158 % of control and 166 % of control
same,T/C,"dose: 2.5 mg/kg/injection, schedule: Q01DX005 (ip), vehicle: other",165 % of control
same,T/C,"dose: 3.0 mg/kg/injection, schedule: Q01DX005 (iv), vehicle: other",124 % of control
same,T/C,"dose: 3.0 mg/kg/injection, schedule: Q01DX009 (ip), vehicle: other",159 % of control
same,T/C,"dose: 3.12 mg/kg/injection, schedule: Q01DX009 (ip), vehicle: saline + alcohol",157 % of control
same,T/C,"dose: 3.13 mg/kg/injection, schedule: Q01DX009 (oral), vehicle: other",100 % of control and 102 % of control
same,T/C,"dose: 3.13 mg/kg/injection, schedule: Q01DX009 (oral), vehicle: saline",103 % of control
same,T/C,"dose: 4.5 mg/kg/injection, schedule: Q01DX005 (ip), vehicle: other",156 % of control and 161 % of control
same,T/C,"dose: 4.5 mg/kg/injection, schedule: Q01DX005 (iv), vehicle: clinical formulation",160 % of control and 169 % of control
same,T/C,"dose: 5.0 mg/kg/injection, schedule: Q01DX005 (ip), vehicle: clinical formulation",185 % of control and 190 % of control
same,T/C,"dose: 5.0 mg/kg/injection, schedule: Q01DX005 (ip), vehicle: distilled water + Tween-80",158 % of control and 178 % of control
same,T/C,"dose: 5.0 mg/kg/injection, schedule: Q01DX005 (ip), vehicle: other",185 % of control
same,T/C,"dose: 6.25 mg/kg/injection, schedule: Q01DX009 (ip), vehicle: saline + alcohol",157 % of control
same,T/C,"dose: 6.25 mg/kg/injection, schedule: Q01DX009 (oral), vehicle: other",110 % of control and 113 % of control and 122 % of control
same,T/C,"dose: 6.25 mg/kg/injection, schedule: Q04DX003 (ip), vehicle: other",162 % of control and 165 % of control
same,T/C,"dose: 6.48 mg/kg/injection, schedule: Q04DX003 (ip), vehicle: other",180 % of control
same,T/C,"dose: 6.7 mg/kg/injection, schedule: Q01DX005 (ip), vehicle: other",172 % of control and 176 % of control
same,T/C,"dose: 6.7 mg/kg/injection, schedule: Q01DX005 (iv), vehicle: clinical formulation",187 % of control and 197 % of control
same,T/C,"dose: 6.7 mg/kg/injection, schedule: Q01DX005 (iv), vehicle: other",161 % of control and 162 % of control
same,T/C,"dose: 10.0 mg/kg/injection, schedule: Q01DX005 (ip), vehicle: clinical formulation",235 % of control and 238 % of control
same,T/C,"dose: 10.0 mg/kg/injection, schedule: Q01DX005 (ip), vehicle: distilled water + Tween-80",180 % of control and 243 % of control
same,T/C,"dose: 10.0 mg/kg/injection, schedule: Q01DX005 (ip), vehicle: other",195 % of control (2×) and 218 % of control
same,T/C,"dose: 10.0 mg/kg/injection, schedule: Q01DX005 (iv), vehicle: clinical formulation",208 % of control and 211 % of control
same,T/C,"dose: 10.0 mg/kg/injection, schedule: Q01DX005 (iv), vehicle: other",176 % of control and 193 % of control
same,T/C,"dose: 10.8 mg/kg/injection, schedule: Q04DX003 (ip), vehicle: other",183 % of control
same,T/C,"dose: 12.5 mg/kg/injection, schedule: Q01DX001 (ip), vehicle: other",155 % of control and 157 % of control
same,T/C,"dose: 12.5 mg/kg/injection, schedule: Q01DX001 (sc), vehicle: other",103 % of control
same,T/C,"dose: 12.5 mg/kg/injection, schedule: Q01DX009 (ip), vehicle: saline + alcohol",178 % of control
same,T/C,"dose: 12.5 mg/kg/injection, schedule: Q01DX009 (oral), vehicle: other",158 % of control
same,T/C,"dose: 12.5 mg/kg/injection, schedule: Q01DX009 (oral), vehicle: saline",156 % of control
same,T/C,"dose: 12.5 mg/kg/injection, schedule: Q04DX003 (ip), vehicle: other",166 % of control and 187 % of control
same,T/C,"dose: 15.0 mg/kg/injection, schedule: Q01DX005 (ip), vehicle: other",224 % of control and 237 % of control
same,T/C,"dose: 15.0 mg/kg/injection, schedule: Q01DX005 (iv), vehicle: clinical formulation",215 % of control and 224 % of control
same,T/C,"dose: 15.0 mg/kg/injection, schedule: Q01DX005 (iv), vehicle: other",196 % of control
same,T/C,"dose: 15.0 mg/kg/injection, schedule: Q01DX009 (oral), vehicle: other",197 % of control
same,T/C,"dose: 18.0 mg/kg/injection, schedule: Q04DX003 (ip), vehicle: other",240 % of control
same,T/C,"dose: 20.0 mg/kg/injection, schedule: Q01DX005 (ip), vehicle: clinical formulation",117 % of control and 284 % of control
same,T/C,"dose: 20.0 mg/kg/injection, schedule: Q01DX005 (ip), vehicle: distilled water + Tween-80",270 % of control and 280 % of control
same,T/C,"dose: 20.0 mg/kg/injection, schedule: Q01DX005 (ip), vehicle: other",284 % of control
same,T/C,"dose: 22.0 mg/kg/injection, schedule: Q01DX009 (oral), vehicle: other",231 % of control
same,T/C,"dose: 22.5 mg/kg/injection, schedule: Q01DX005 (ip), vehicle: other",346 % of control
same,T/C,"dose: 25.0 mg/kg/injection, schedule: Q01DX001 (ip), vehicle: other",150 % of control and 160 % of control
same,T/C,"dose: 25.0 mg/kg/injection, schedule: Q01DX001 (sc), vehicle: other",106 % of control and 112 % of control
same,T/C,"dose: 25.0 mg/kg/injection, schedule: Q01DX009 (ip), vehicle: saline + alcohol",231 % of control
same,T/C,"dose: 25.0 mg/kg/injection, schedule: Q01DX009 (oral), vehicle: other",111 % of control and 211 % of control and 96 % of control
same,T/C,"dose: 25.0 mg/kg/injection, schedule: Q01DX009 (oral), vehicle: saline",229 % of control
same,T/C,"dose: 25.0 mg/kg/injection, schedule: Q04DX003 (ip), vehicle: other",192 % of control and 193 % of control
same,T/C,"dose: 30.0 mg/kg/injection, schedule: Q04DX003 (ip), vehicle: other",247 % of control
same,T/C,"dose: 50.0 mg/kg/injection, schedule: Q01DX001 (ip), vehicle: other",157 % of control and 197 % of control
same,T/C,"dose: 50.0 mg/kg/injection, schedule: Q01DX001 (sc), vehicle: other",100 % of control and 122 % of control
same,T/C,"dose: 50.0 mg/kg/injection, schedule: Q01DX009 (oral), vehicle: other",101 % of control and 103 % of control and 91 % of control
same,T/C,"dose: 50.0 mg/kg/injection, schedule: Q01DX009 (oral), vehicle: saline",91 % of control
same,T/C,"dose: 50.0 mg/kg/injection, schedule: Q04DX003 (ip), vehicle: other",182 % of control and 252 % of control
same,T/C,"dose: 100.0 mg/kg/injection, schedule: Q01DX001 (ip), vehicle: other",169 % of control
same,T/C,"dose: 100.0 mg/kg/injection, schedule: Q01DX001 (sc), vehicle: other",105 % of control
same,T/C,"dose: 200.0 mg/kg/injection, schedule: Q01DX001 (ip), vehicle: other",175 % of control
same,T/C,"dose: 200.0 mg/kg/injection, schedule: Q04DX003 (ip), vehicle: other",95 % of control
